# Read-outs that look alike come from different tables or passages of the source. No end group written: not given here.
# What was measured:
# [1] = tested on: Candida spp. strains tested; assay: Antifungal activity against the whole panel of strains tested; assay type: cell-based; settings: Candida; all strains of Table 2
# Procedure: Antifungal activity of the tested compounds against yeast cells was determined in 96-well plates as described in the CLSI document M27-A3 [39], with minor modifications (CLSI, 2008). Suspensions of the microorganisms were prepared by taking one loop of pure culture into sterile water and adjusting optical density to 0.1 at 660 nm wavelength and further 50-fold dilution in RPMI 1640 medium, resulting in cell concentration of approximately 2 × 10^4 CFU/mL [21]. Then, 100 μL of cells were added to the wells of a 96-well microtiter plate that contained 16–500 μM tested compounds and 16–500 μM of FLC or 0.2–62 μM AmB. The plates were incubated for 24 h at 37 °C. Each test was performed in triplicate. […] The MIC90 was defined as the lowest concentration of drug showing no visible growth; MIC50 was defined as the concentration that yielded at least 50% growth inhibition when compared with the growth control well.
# Candida albicans 604 = assay: microbe, parasite or virus in culture; settings: Candida albicans, 604, 24 h
# Procedure: (§1) The assessment of antifungal potential of synthesized agents was carried out using four reference strains (C. albicans ATCC 10231, C. albicans SC5314, C. glabrata DSM […] and C. krusei DSM […]) and six clinical isolates of fluconazole-resistant C. albicans that were provided by the Hospital of Medical University of Gdansk, Poland. Moreover, four C. albicans isolates, assigned as B3, B4, Gu4 and Gu5, were used for investigation whether the synthesized fluconazole derivatives were effectively removed from the yeast cells by the drug efflux transporters, as in the case of fluconazole. These strains were kindly provided by Prof. Joachim Morschhäuser from University of Würzburg (Würzburg, Germany). Strains Gu4 and B3 were fluconazole-sensitive isolates obtained from early infection episodes, while Gu5 and B4 were the corresponding fluconazole-resistant isolates obtained from later episodes in the same patients treated with fluconazole. The lack of susceptibility of the Gu5 strain to fluconazole was a consequence of overexpression of CDR1/2 genes encoding ABC transporters, whereas the resistance of B4 strain was caused by overexpression of the MDR1 gene encoding a membrane transport protein of the major facilitator superfamily (MFS). All of these Candida spp. strains were maintained on YPD agar plates (1% (w/v) yeast extract, 2% (w/v) peptone, 2% (w/v) glucose, 2% (w/v) agar) at 30 °C for 16–24 h. For all of the assays aimed at assessing the antifungal potential of the synthesized agents, the yeasts were cultivated at 37 °C in RPMI 1640 medium (with L-glutamine, without sodium bicarbonate, Sigma-Aldrich, Darmstadt, Germany)) buffered to a pH of 7.0 with 0.165 M morpholinepropanesulfonic acid (MOPS) buffer (Sigma-Aldrich). In this study, we used the human foreskin fibroblast cell line Hs27 (ATCC CRL 1634TM) and the human endothelial cell line HUVEC (C2519A), purchased from Lonza Group AG, (Basel, Switzerland). The Hs27 cells were maintained in cell media consisting of Dulbecco’s modified Eagles medium (DMEM), (Corning, Arizona, USA) with 10% fetal bovine serum (FBS), (Corning, Port Elizabeth, South Africa), 1% penicillin/streptomycin (Sigma-Aldrich Inc., Darmstadt, Germany), and 1% L-glutamine (Corning, Arizona, USA). The human endothelial cell line was maintained in cell media consisting of Endothelial Cell Growth Medium-2 Single Quots Kit (Lonza, USA). Both cell lines were cultured in an incubator at 37 °C and 5% CO2.
# (§2) Antifungal activity of the tested compounds against yeast cells was determined in 96-well plates as described in the CLSI document M27-A3 [39], with minor modifications (CLSI, 2008). […] The plates were incubated for 24 h at 37 °C. Each test was performed in triplicate. The final concentration of DMSO was ensured to be around 1% in all experiments.
# (§3) For determination of minimum fungicidal concentrations (MFC), small aliquots of suspensions (around 10 μL) from each well were transferred using the pipette to YPD agar plates without inhibitors and incubated for 24 h at 37 °C.
# Candida krusei DSM 11226 = assay: microbe, parasite or virus in culture; settings: Pichia kudriavzevii, DSM11226, 24 h
# Procedure: as §1, §2, §3
# Candida albicans SC 5314 = assay: microbe, parasite or virus in culture; settings: Candida albicans, SC5314, 24 h
# Procedure: as §1, §2, §3
# Candida albicans 247 = assay: microbe, parasite or virus in culture; settings: Candida albicans, 247, 24 h
# Procedure: as §1, §2, §3
# Candida albicans 190 = assay: microbe, parasite or virus in culture; settings: Candida albicans, 190, 24 h
# Procedure: as §1, §2, §3
# Candida albicans 138 = assay: microbe, parasite or virus in culture; settings: Candida albicans, 138, 24 h
# Procedure: as §1, §2, §3
# Candida albicans Gu4 = assay: microbe, parasite or virus in culture; settings: Candida albicans, GU4, 24 h
# Procedure: as §1, §2, §3
# Candida albicans B3 = assay: microbe, parasite or virus in culture; settings: Candida albicans, B3, 24 h
# Procedure: as §1, §2, §3
# Candida albicans B4 = assay: microbe, parasite or virus in culture; settings: Candida albicans, B4, 24 h
# Procedure: as §1, §2, §3
# [2] = tested on: Candida glabrata DSM 6128; assay: microbe, parasite or virus in culture; settings: Nakaseomyces glabratus, DSM6128, 24 h
# Procedure: as §1, §2, §3
# Candida albicans Gu5 = assay: microbe, parasite or virus in culture; settings: Candida albicans, GU5, 24 h
# Procedure: as §1, §2, §3
# Candida albicans 574 = assay: microbe, parasite or virus in culture; settings: Candida albicans, 574, 24 h
# Procedure: as §1, §2, §3
# [3] = tested on: Candida albicans ATCC 10231; assay: microbe, parasite or virus in culture; settings: Candida albicans, ATCC10231, 24 h
# Procedure: as §1, §2, §3
# Candida albicans 48 = assay: microbe, parasite or virus in culture; settings: Candida albicans, 48, 24 h
# Procedure: as §1, §2, §3
# [4] = cited from earlier work
# Procedure: Fluconazole is water-soluble, safe for patients even at a high daily dose ([…]), can be applied either intravenously or orally, and has a beneficial pharmacokinetic profile and broad spectrum of activity.
# C. glabrata DSM 11226 = settings: C. glabrata DSM 11226, RPMI-1640, 200 – 0.4 μg/mL range
# Procedure: (§4) The selective activities of the FLC-conjugates were calculated according to the following formula
# (§5) (1 picture or pasted object on this page, not shown here)
# C. albicans ATCC 10231 = settings: C. albicans ATCC 10231, RPMI-1640, 200 – 0.4 μg/mL range
# Procedure: as §4, §5
# C. krusei DSM 6128 = settings: C. krusei DSM 6128, RPMI-1640, 200 – 0.4 μg/mL range
# Procedure: as §4, §5
# C. tropicalis (clinical) = settings: RPMI-1640, 200 – 0.4 μg/mL range
# Procedure: as §4, §5
compound,measurement,setting,value
"C[C@@H]1[C@H](O)[C@@H](C)/C=C/C=C/C=C/C=C/C=C/C=C/C=C/[C@H](O[C@@H]2O[C@H](C)[C@@H](O)[C@H](N)[C@@H]2O)C[C@@H]2O[C@](O)(C[C@@H](O)C[C@@H](O)[C@H](O)CC[C@@H](O)C[C@@H](O)CC(=O)O[C@H]1C)C[C@H](O)[C@H]2C(=O)O [Amphotericin B (AmpB), Amphotericin B, reference compound]",MIC,[1],< 0.1 µM
same,MFC,Candida albicans 604,< 0.1 µM
same,MIC50,Candida albicans 604; pH 7,< 0.1 µM
same,MIC90,Candida albicans 604; pH 7,< 0.1 µM
same,MFC,Candida krusei DSM 11226,< 0.1 µM
same,MIC50,Candida krusei DSM 11226; pH 7,< 0.1 µM
same,MIC90,Candida krusei DSM 11226; pH 7,< 0.1 µM
same,MFC,Candida albicans SC 5314,< 0.1 µM
same,MIC50,Candida albicans SC 5314; pH 7,< 0.1 µM
same,MIC90,Candida albicans SC 5314; pH 7,< 0.1 µM
same,MFC,Candida albicans 247,< 0.1 µM
same,MIC50,Candida albicans 247; pH 7,< 0.1 µM
same,MIC90,Candida albicans 247; pH 7,< 0.1 µM
same,MFC,Candida albicans 190,< 0.1 µM
same,MIC50,Candida albicans 190; pH 7,< 0.1 µM
same,MIC90,Candida albicans 190; pH 7,< 0.1 µM
same,MFC,Candida albicans 138,< 0.1 µM
same,MIC50,Candida albicans 138; pH 7,< 0.1 µM
same,MIC90,Candida albicans 138; pH 7,< 0.1 µM
same,MFC,Candida albicans Gu4,< 0.1 µM
same,MIC50,Candida albicans Gu4; pH 7,< 0.1 µM
same,MIC90,Candida albicans Gu4; pH 7,< 0.1 µM
same,MFC,Candida albicans B3,< 0.1 µM
same,MIC50,Candida albicans B3; pH 7,< 0.1 µM
same,MIC90,Candida albicans B3; pH 7,< 0.1 µM
same,MFC,Candida albicans B4,< 0.1 µM
same,MIC50,Candida albicans B4; pH 7,< 0.1 µM
same,MIC90,Candida albicans B4; pH 7,< 0.1 µM
same,MFC,[2],< 0.1 µM
same,MIC50,[2]; pH 7,< 0.1 µM
same,MIC90,[2]; pH 7,< 0.1 µM
same,MFC,Candida albicans Gu5,< 0.1 µM
same,MIC50,Candida albicans Gu5; pH 7,< 0.1 µM
same,MIC90,Candida albicans Gu5; pH 7,< 0.1 µM
same,MFC,Candida albicans 574,< 0.1 µM
same,MIC50,Candida albicans 574; pH 7,< 0.1 µM
same,MIC90,Candida albicans 574; pH 7,< 0.1 µM
same,MFC,[3],< 0.1 µM
same,MIC50,[3]; pH 7,< 0.1 µM
same,MIC90,[3]; pH 7,< 0.1 µM
same,MFC,Candida albicans 48,< 0.1 µM
same,MIC50,Candida albicans 48; pH 7,< 0.1 µM
same,MIC90,Candida albicans 48; pH 7,< 0.1 µM
CCC(C)n1ncn(-c2ccc(N3CCN(c4ccc(OCC5COC(Cn6cncn6)(c6ccc(Cl)cc6Cl)O5)cc4)CC3)cc2)c1=O (stereo not shown) [itraconazole],incidence rate of azole-induced liver injury,[4]; in vivo,2–4%
CC(=O)N1CCN(c2ccc(OCC3COC(Cn4ccnc4)(c4ccc(Cl)cc4Cl)O3)cc2)CC1 (stereo not shown) [ketoconazole],incidence rate of azole-induced liver injury,[4],2–10%
CFQWKRAMRKVR-NH2 [HLopt2-NH2],MIC50,C. glabrata DSM 11226,> 250 µg/mL
same,MIC90,C. glabrata DSM 11226,> 250 µg/mL
same,MIC50,C. albicans ATCC 10231,> 250 µg/mL
same,MIC50,C. krusei DSM 6128,250 µg/mL
same,MIC90,C. krusei DSM 6128,250 µg/mL
same,MIC50,C. tropicalis (clinical),> 250 µg/mL
same,MIC90,C. tropicalis (clinical),> 250 µg/mL

# — article PMC9026428, “New Peptide Based Fluconazole Conjugates with Expanded Molecular Targets” (Pharmaceutics, 2022)
